Patent US20140322360A1, “METHOD AND DEVICE FOR ATTRACTING BLOOD-SUCKING ARTHROPODS” (BIOGENTS AG, priority 2011, published 2014)

Test system: female mosquitoes
Experiment: Y-olfactometer test of attractiveness (activation and orientation of mosquitoes)
Format: in vivo
Settings: A0, B0, C0 together, regardless of the CO2 concentration used
Description: Olfactometer tests are particularly useful during product development. They are used to filter out the most promising candidate substances from a number of interesting attractants or repellents quickly and cost-effectively. In particular, the olfactometer 60 has the form of a “Y”. A cage with piercing joyful female mosquitoes is connected to the lower end 62 of the “Y” of the air conditioned tubular system of the olfactometer 60. The two arms 64 and 65 of the “Y” each include the control chamber 70 and test chamber 72. Air L flows through both chambers 70, 72 and is then combined in the base leg 66 of the “Y”. During the phase when the stimulus is given, the test mosquitoes can fly into the direction of movement B into the olfactometer 60 and choose between the test chamber 72 with air containing the stimulus and the control chamber 70 containing clean air. Air L flows through the olfactometer 60 in the direction opposite to the direction of movement B of the mosquitoes, the air L being entrained with the attractant from the test chamber 72. Firstly, the activation or mobilization of the test mosquitoes is determined. This refers to a non-directional fly away of the mosquitoes when a stimulus is given. […] Then the orientation is further determined by counting the number of mosquitoes in the test chamber 72. […]

O=C=O [CO2]
directional orientation Y: about 50%
undirected activation X: about 83%
